Test results: ChEMBL document CHEMBL1152811, “Docking model of drug binding to the human ether-à-go-go potassium channel guided by tandem dimer mutant patch-clamp data: a synergic approach” (J Med Chem, 2009)
The source made the active and inactive calls. The rule behind the calls is not given here.

Key:
Type in all cases: cell-based
[1] = Inhibition of human ERG td[wt:Y652A] mutant expressed in HEK293 cells by whole cell patch clamp method
[2] = Inhibition of human ERG td[wt:F656A] mutant expressed in HEK293 cells by whole cell patch clamp method
[3] = target: Voltage-gated inwardly rectifying potassium channel KCNH2 (Homo sapiens, UniProt Q12809); assay: Inhibition of human ERG expressed in HEK293 cells by whole cell patch clamp method
Chain of Voltage-gated inwardly rectifying potassium channel KCNH2 (Q12809 whole entry): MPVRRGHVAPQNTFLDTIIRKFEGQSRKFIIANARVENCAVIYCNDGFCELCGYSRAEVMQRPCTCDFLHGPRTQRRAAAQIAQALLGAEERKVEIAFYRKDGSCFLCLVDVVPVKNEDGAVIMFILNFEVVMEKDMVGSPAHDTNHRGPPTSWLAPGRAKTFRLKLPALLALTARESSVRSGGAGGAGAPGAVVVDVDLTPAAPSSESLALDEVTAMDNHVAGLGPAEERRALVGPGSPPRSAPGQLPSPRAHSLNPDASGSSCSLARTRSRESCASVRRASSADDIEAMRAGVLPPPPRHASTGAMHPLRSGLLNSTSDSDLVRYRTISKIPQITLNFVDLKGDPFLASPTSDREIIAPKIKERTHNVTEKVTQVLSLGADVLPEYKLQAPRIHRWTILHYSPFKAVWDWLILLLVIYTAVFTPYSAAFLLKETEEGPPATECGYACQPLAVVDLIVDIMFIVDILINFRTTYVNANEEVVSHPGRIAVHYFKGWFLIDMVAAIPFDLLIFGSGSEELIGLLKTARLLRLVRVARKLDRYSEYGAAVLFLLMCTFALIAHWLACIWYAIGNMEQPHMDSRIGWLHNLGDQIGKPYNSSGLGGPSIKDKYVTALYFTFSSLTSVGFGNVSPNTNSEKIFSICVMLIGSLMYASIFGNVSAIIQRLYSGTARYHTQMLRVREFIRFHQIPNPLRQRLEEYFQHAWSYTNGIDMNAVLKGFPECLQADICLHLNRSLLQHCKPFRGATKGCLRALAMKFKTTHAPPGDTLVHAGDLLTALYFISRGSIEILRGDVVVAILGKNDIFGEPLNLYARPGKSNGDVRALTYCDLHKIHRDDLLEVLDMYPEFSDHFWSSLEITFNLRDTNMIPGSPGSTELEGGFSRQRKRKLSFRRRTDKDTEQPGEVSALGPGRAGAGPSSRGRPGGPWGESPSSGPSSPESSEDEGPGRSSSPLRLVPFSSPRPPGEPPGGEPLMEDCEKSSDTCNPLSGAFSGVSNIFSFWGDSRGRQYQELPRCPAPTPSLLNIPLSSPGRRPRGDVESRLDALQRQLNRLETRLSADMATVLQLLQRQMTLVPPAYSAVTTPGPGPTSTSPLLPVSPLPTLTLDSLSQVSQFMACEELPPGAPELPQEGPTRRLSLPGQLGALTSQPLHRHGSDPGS

HEK293 [4] = assay: Binding affinity to human ERG td[wt:Y652A] mutant expressed in HEK293 cells assessed as blockade of membrane current at 0.2 uM by whole cell patch clamp method
HEK293 [5] = assay: Binding affinity to human ERG td[wt:F656A] mutant expressed in HEK293 cells assessed as blockade of membrane current at 0.05 uM by whole cell patch clamp method

Row | SMILES | IC50 [1] | IC50 [2] | IC50 [3] | Activity (HEK293 [4]) | Activity (HEK293 [5])
1 | CC(C)(C)c1ccc(C(O)CCCN2CCC(C(O)(c3ccccc3)c3ccccc3)CC2)cc1 (centres undefined) [TERFENADINE] | 0.03 µM | 0.03 µM |  |  | 
2 | CCOc1cc(N)c(Cl)cc1C(=O)NCC1CN(Cc2ccc(F)cc2)CCO1 (centres undefined) [MOSAPRIDE] |  |  | 4.8 µM |  | 
3 | Cc1cccc(CCN2CCC(C(=O)c3ccc(NS(C)(=O)=O)cc3)CC2)n1 | 0.25 µM | 0.02 µM |  |  | 
4 | COc1cc(N)c(Cl)cc1C(=O)NC1CCN(CCCOc2ccc(F)cc2)CC1OC (centres undefined) [CISAPRIDE] | 0.18 µM | 0.01 µM |  | Active | Active
